The results in this text go back to paper PMC5464344, “Analgesic and anti‐inflammatory properties of novel, selective, and potent EP4 receptor antagonists” (Pharmacology Research & Perspectives, 2017).

For test [1], the system named is PGE2 Inhibited TNFα in human whole blood. Kind of test: Human whole blood assay (Reversal of PGE2 Inhibited TNFα). Format: cell-based. The conditions noted are these: for times more potent than reference EP4 antagonists (whole blood assay): PGE2 mediated TNF-α. The procedure:
Blood was collected from normal volunteer donors into sodium heparin vacutainer tubes. Donors had not taken glucocorticoids within 2 weeks of the donation. […] The plates were incubated for 20–24 h at 37 °C, 5% CO2, in a humidified atmosphere. […] Plasma was removed from the cell layer and was transferred to v‐bottom polypropylene plates. […] The plates were read at A450‐A650 on a plate reader (Molecular Devices Versamax) using SOFTmaxPRO (v. 4.3.I) software. IC50s were calculated using Graphpad Prism (v. 4) nonlinear regression, sigmoidal dose response curve fitting. Results are expressed as the geometric mean ± SD.

The next test has as its target T1, human EP3 receptor (Homo sapiens, UniProt P43115).
T1 sequence (P43115 1-359 limits assumed): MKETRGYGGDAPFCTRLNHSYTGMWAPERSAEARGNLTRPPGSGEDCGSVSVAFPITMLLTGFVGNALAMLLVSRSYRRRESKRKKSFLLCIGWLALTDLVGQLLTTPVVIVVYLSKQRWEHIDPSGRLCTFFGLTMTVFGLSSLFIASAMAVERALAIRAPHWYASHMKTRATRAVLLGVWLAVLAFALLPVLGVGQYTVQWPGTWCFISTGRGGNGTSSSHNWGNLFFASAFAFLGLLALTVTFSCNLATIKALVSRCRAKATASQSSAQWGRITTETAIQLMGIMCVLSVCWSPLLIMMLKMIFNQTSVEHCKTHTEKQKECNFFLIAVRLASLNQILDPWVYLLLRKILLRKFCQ
Nature of the test: [3H]-PGE2 receptor binding assay, EP3 membranes. The conditions noted are these: HEK293 membranes, geometric mean ± SEM, read-out: hEP1-4 receptor binding EP3 Ki. Here is the method: (§1) Receptor binding assays were done using membrane preparations of HEK 293 cells transfected with various prostanoid receptors using previously published procedure (Nakao et al. 2007). EP1 and EP4 membranes were prepared from recombinant HEK293 cells stably expressing human EPl receptor (GenBank Accession # AY275470, Clone ID PER0100000, UMR cDNA Resource Center, Rolla, MO) or human EP4 receptor. EP2 and EP3 membranes were prepared from HEK293 cells transiently transfected with human EP2 receptor (GenBank Accession # AY275471, Clone ID PER0200000, UMR cDNA Resource Center, Rolla, MO) or human EP3 receptor (GenBank Accession # AY429108, Clone ID PER3VI0000, UMR cDNA Resource Center, Rolla, MO) plasmids. Frozen cell pellets were homogenized in homogenization buffer (10 mmol/L Tris‐HCl, pH7.4, 250 mmol/L sucrose, 1 mmol/L EDTA, 0.3 mmol/L indomethacin and protease inhibitor cocktail with EDTA (Roche Molecular Biochemicals, catalog # 1691498)) using a Teflon/glass homogenizer. After a low speed centrifugation (200g for 15 min at 4°C) the supernatant was subjected to high speed centrifugation (30,000g for 60 min at 4°C). Membrane protein preparation was aliquoted and quick frozen on dry ice prior to storage at −80°C. […] Compounds were tested in a 96‐well format using a three‐fold dilution series to generate 10‐point curves. […] The binding reaction was performed in 200 μL MES buffer (10 mmol/L MES, pH 6.0, 10 mmol/L MgCl2, and l mmol/L EDTA) using polystyrene 96‐well plates. […] The membranes were harvested by filtration (TomTek harvester), washed four times with cold buffer (10 mmol/L MES, pH 6.0, 10 mmol/L MgCl2), dried in a 60°C oven, and the radioactivity was quantified as counts per min (CPM) using a TopCount detector. […] Data were analyzed using a 4‐parameter nonlinear logistic equation. K i Conversion from IC50 Values (K i = […] where [L] is the ligand concentration). Results are expressed as the geometric mean ± standard deviation or geometric mean ± standard error as noted.

The next test concerns the target T2, human EP2 receptor (Homo sapiens, UniProt P43116).
T2 construct: host or cells: HEK293, transient; membrane preparation
Nature of the test: [3H]-PGE2 receptor binding assay, EP2 membranes. The procedure: as §1

Another test deals with Human EP4 (Homo sapiens, UniProt P35408). Kind of test: [3H]-PGE2 receptor binding assay, EP4 membranes. Also on record: expressed in transfected cells; membrane preparation. As to conditions: HEK293 membranes, geometric mean ± SEM, read-out: hEP1-4 receptor binding EP4 Ki. The procedure: as §1
Chain of Human EP4 (P35408 whole entry): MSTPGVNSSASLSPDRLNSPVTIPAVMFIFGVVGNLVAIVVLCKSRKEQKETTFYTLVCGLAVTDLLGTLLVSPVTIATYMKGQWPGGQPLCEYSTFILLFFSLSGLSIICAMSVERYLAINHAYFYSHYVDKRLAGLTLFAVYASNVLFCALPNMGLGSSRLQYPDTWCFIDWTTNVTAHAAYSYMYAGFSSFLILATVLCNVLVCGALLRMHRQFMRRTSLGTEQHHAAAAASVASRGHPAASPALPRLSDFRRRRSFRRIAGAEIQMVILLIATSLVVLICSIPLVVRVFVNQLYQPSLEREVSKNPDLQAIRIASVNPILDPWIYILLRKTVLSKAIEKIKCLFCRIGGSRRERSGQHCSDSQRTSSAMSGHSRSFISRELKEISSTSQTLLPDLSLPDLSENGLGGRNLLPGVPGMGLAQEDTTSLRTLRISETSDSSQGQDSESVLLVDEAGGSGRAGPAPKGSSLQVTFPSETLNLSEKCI
The target in a further test is T3, Rat EP4 (Rattus norvegicus, UniProt P43114).
T3 construct: expressed in transfected cells
T3 sequence (P43114 whole entry): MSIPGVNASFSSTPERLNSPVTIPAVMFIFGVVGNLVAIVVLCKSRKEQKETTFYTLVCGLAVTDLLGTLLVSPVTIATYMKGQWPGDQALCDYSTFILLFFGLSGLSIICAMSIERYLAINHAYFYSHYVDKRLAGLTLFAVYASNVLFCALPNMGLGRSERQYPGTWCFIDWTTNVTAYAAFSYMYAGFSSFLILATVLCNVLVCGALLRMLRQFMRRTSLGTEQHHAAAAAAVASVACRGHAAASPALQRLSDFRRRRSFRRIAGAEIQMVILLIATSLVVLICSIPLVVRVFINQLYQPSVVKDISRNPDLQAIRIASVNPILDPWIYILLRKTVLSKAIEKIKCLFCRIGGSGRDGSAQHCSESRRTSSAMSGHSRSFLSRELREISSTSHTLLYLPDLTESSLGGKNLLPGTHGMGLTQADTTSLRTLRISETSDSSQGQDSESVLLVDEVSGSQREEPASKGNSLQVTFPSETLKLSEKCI
Nature of the test: EP4 cAMP antagonist assay (HTRF), rat EP4. The format is cell-based. The conditions noted are these: read-out: cAMP Antagonism Rat EP4 IC50. Here is the method: Human EP4 (GenBank Accession # AY429109, Clone ID PER0400000, UMR cDNA Resource Center, Rolla, MO) was stably expressed in HEK293 cells. Rat EP4 cDNA (GenBank Accession# NM_03276) was cloned into pcDNA 3.1 vector and stably transfected into HEK293 cells. The cell lines were maintained in DMEM (invitrogen) supplemented with 10% fetal bovine serum (FBS), 1 mmol/L sodium pyruvate, 10 mmol/L HEPES, 500 μg/mL geneticin and 2 mmol/L L‐glutamine. Confluent cultures were grown at 37°C in an atmosphere containing 5% CO2. Cells were harvested using 0.25% Trypsin‐ EDTA, suspended in freeze media at a density of 10^7cel1s/mL, and aliquots were stored in liquid nitrogen. Immediately prior to the assay, cells were thawed with DMEM and suspended in cAMP assay buffer (HBSS with 0.1% BSA, 20 mmol/L HEPES and 200 μmol/L IBMX).
CJ‐023,423 served as the positive control. To measure the cAMP levels, cAMP‐d2 conjugate and anti cAMP‐cryptate conjugate in lysis buffer were incubated with the treated cells at room temperature for 1 h. The HTRF signal was detected using an EnVision plate reader (Perkin‐Elmer, Inc., Waltham, MA, USA.) to calculate the ratio of fluorescence at 665 to 620 nm. The raw data were converted to cAMP (nmol/L) using a cAMP standard curve generated for each experiment. Data were analyzed using a 4‐parameter nonlinear logistic equation. Results are expressed as the geometric mean ± standard deviation or geometric mean ± standard error as noted.

[2] abbreviates: HEK293 membranes, [3H]-PGE2, geometric mean ± SEM, read-out: hEP1-4 receptor binding EP2 Ki.

The structures appear in SMILES notation. Like-named read-outs stand apart in the source and are kept apart here. A value given as a limit tells only on which side of the number the result lay.

T2 sequence (P43116 whole entry): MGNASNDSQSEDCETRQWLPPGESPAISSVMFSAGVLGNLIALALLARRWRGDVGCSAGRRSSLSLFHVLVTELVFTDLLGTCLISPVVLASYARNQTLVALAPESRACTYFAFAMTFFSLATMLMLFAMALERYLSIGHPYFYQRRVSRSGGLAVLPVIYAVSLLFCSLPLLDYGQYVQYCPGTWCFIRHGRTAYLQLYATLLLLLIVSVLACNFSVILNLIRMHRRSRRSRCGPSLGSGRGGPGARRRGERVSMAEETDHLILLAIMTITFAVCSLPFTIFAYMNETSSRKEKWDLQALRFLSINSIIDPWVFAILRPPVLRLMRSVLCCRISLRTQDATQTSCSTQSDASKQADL

Broadly, the Ki is the dissociation constant of the complex between target and ligand, obtained from inhibition or displacement. The term IC50 denotes the concentration at which inhibition is half-maximal. On to `C[C@H](NC(=O)c1cc(Cl)ccc1Oc1ccc(F)cc1)c1ccc(C(=O)O)cc1` [CJ‐042,794, reference compound], for which the “reversal of PGE2 suppression of LPS stimulated TNF‐α production” value in test [1] (human whole blood, various concentrations (Fig. 5A)) is “reversed”. The inhibition constant Ki at human EP3 receptor was > 15500 nM; on human EP2 receptor (setting [2]), 931 ± 457 nM; on Human EP4 it was 12.6 ± 7.36 nM. Moreover, at Rat EP4, the IC50 stood at 20.6 ± 1.8 nM.
Consider `Cc1ccc(N2CCC(O)CC2)nc1C(=O)Nc1c(C)cc(C(=O)O)cc1C` [Compound 1], for which the “times more potent than reference EP4 antagonists (whole blood assay)” value in test [1] (human whole blood) was 5–10 times. Moreover, the IC50 was 123 ± 80 nM in test [1] (read-out: Human whole blood (Reversal of PGE2 Inhibited TNFα) IC50, 10 μg/ml LPS + 10 nmol/L PGE2, 20–24 h, geometric mean ± SD) and 12.3 nM at Rat EP4. Also, at Human EP4, the Ki stood at 58 ± 12 nM.
With `C[C@H](NC(=O)[C@H]1CCCCN1CCOc1ccccc1)c1ccc(C(=O)O)cc1` [Compound 2], the “times more potent than reference EP4 antagonists (whole blood assay)” value in test [1] (human whole blood) was 5–10 times. Also, the values for the inhibition constant Ki on human EP3 receptor, at human EP2 receptor (setting [2]) and at human EP2 receptor (read-out: Ki for EP2 receptor) were > 14000 nM, 1210 ± 509 nM and 1200 nM, respectively. The IC50 on Rat EP4 stood at 15.4 nM.
As to `Cc1ccc(-c2cccc(CO)c2)nc1C(=O)Nc1c(C)ccc(C(=O)O)c1C` [Compound 3], the Ki at human EP3 receptor is > 14000 nM; at human EP2 receptor (setting [2]), > 18900 nM; at Human EP4, 2.07 ± 1.31 nM. Also, the half-maximal inhibitory concentration (IC50) on Rat EP4 is 1 nM.
